Experimental data: US12629368B2, “Use of N-(3-(4-(3-(diisobutylamino)propyl)piperazin-1-yl)propyl)-1H-benzo[d]imidazol-2-amine sulphate salts and solvates thereof for the treatment of motor neuron diseases and neuromuscular junction disorders” (ALZPROTECT, priority 2020, dated 2026)

How the values were obtained:
ALS [1] = details: oral drug, ALS patients; cited from earlier work
ALS [2] = details: injected intravenously, small subset of people with ALS, phase 3; cited from earlier work
[3] = system: rat primary motor neurons; experiment: Rat primary motor neurons injured with glutamate, 24 h pre-treatment + 24 h post-injury treatment (Example 2); format: cell-based
Procedure: (§1) Rat motor neurons (MN) were cultured as previously described by Martinou et al., Neuron. 1992, April; 8(4), 737-44 and Wang et al. Hum. Mol. Genet., 2013 Dec. 1; 22(23), 4706-19. Pregnant female rats of 14 days gestation (Rats Wistar; Janvier Labs France) were killed using a deep anesthesia with CO2 followed by cervical dislocation. Then, fetuses were removed from the uterus and immediately placed in ice-cold L15 Leibovitz medium with a 2% penicillin (10,000 U/mL) and streptomycin (10 mg/mL) solution (PS) and 1% bovine serum albumin (BSA). Spinal cords were treated for 20 min at 37° C. with a trypsin-Ethylenediaminetetraacetic acid (EDTA) solution at a final concentration of 0.05% trypsin and 0.02% EDTA. The dissociation was stopped by the addition of Dulbecco's modified Eagle's medium (DMEM) with 4.5 g/liter of glucose, containing DNAse I grade II (final concentration 0.5 mg/mL) and 10% fetal calf serum (FCS). Cells were mechanically dissociated by three forced passages through the tip of a […]. Cells were then centrifuged at 180×g for 10 min at +4° C. on a layer of BSA (3.5%) in L15 medium. The supernatant was discarded, and the pellet was resuspended in a defined culture medium consisting of Neurobasal medium with a 2% solution of B27 supplement, 2 mmol/liter of L-glutamine, 2% of PS solution, and 10 ng/mL of brain-derived neurotrophic factor (BDNF). Viable cells were counted in a Neubauer cytometer, using the trypan blue exclusion test. The cells were seeded at a density of 20,000 per well in 96-well plates (immunostaining) precoated with poly-L-lysine and cultured at 37° C. in an air (95%)-CO2 (5%) incubator. The medium was changed every 2 days. The motor neurons were injured with glutamate after 13 days of culture.
(§2) After 14 or 15 days of culture (48 h after the glutamate injury), the cell culture supernatant was collected and the spinal cord MNs were fixed by a cold solution of ethanol (95%) and acetic acid (5%) for 5 min at −20° C. After permeabilization with 0.1% of saponin, cells were blocked for 2 h with PBS containing 1% fetal calf serum. Then, cells were incubated with: • a) mouse monoclonal antibody anti-microtubule associated protein 2 (MAP-2) at dilution of 1/400 in PBS containing 1% fetal calf serum and 0.1% of saponin. This antibody binds specifically MAP-2 present in cell bodies and neurites of all MNs. […] Nuclei of neurons were labeled by a fluorescent marker (Hoechst solution). • b) Rabbit polyclonal antibody anti-TDP43 at dilution of 1/100 in PBS containing 1% fetal calf serum and 0.1% of saponin. Cytoplasmic localization of TDP43 was investigated.
All images were taken under the same conditions (exposition time, gain and laser intensity). Analysis of different endpoints, were automatically performed using Custom Module Editor (Molecular Devices). Motoneurons (MAP-2) were distinguished from interneurons (staining MAP-2) using the following morphological criteria: a cell body diameter […] and the presence of a minimum of three neuritic processes (Ferraiuolo et al. Brain 2011: 134; 2627-2641).
(§3) The endpoints were: • survival of MN (number of MN) • total neurite outgrowth of MN (expressed in μm) • TDP43 (extranuclear, eTDP43) in MN (expressed as area eTDP43-μm^2/number of MN) Statistical Analysis
The culture was carried out as described in example 1.
On day 12 of culture, primary motor neurons were treated with the sulphate salt for 24 hours. […]

[4] = system: spinal cord/muscle neuromuscular junctions; experiment: Co-culture of human myoblasts and rat spinal cord explants injured with glutamate, neuromuscular junctions (Example 4); format: cell-based, human muscle cell line; details: 300 nM, glutamate 60 μM 20 min, 48 h
[5] = system: primary culture of rat spinal motor neurons; experiment: Rat primary spinal motor neurons injured with glutamate, 48 h co-incubation (Example 1); format: cell-based; details: 48 h incubation
Procedure: as §1
On day 13 of culture, glutamate was added to a final concentration of 5 μM diluted in control medium in presence of the sulphate salt for 20 min. After 20 min, glutamate was washed and fresh culture medium with the sulphate salt was added for 48 hours.
as §2
All images were taken under the same conditions (exposition time, gain and laser intensity). Analysis of different endpoints, were automatically performed using Custom Module Editor (Molecular Devices). […]
as §3
All values are expressed as mean+/−SEM. […]

[6] = system: SOD1^G93A Tg rat spinal cord motor neurons; experiment: Primary culture of SOD1G93A Tg rat spinal cord motor neurons injured with glutamate (Example 3); format: cell-based
Procedure: The day of the dissection (from pregnant females at 14 days of gestation), a piece of each embryo head (˜3 mm^3) was placed in a 2 mL tube free DNase with a new scalpel. The DNA was extracted with the SYBR Green Extract-N-Amp tissue PCR kit (Sigma Aldrich). Briefly, 120 μL of extraction solution was put on each piece of embryo heads. Then, they were incubated for 10 min at room temperature. At the end of this incubation period, the heads were incubated for 5 min at 95° C. Immediately after this last incubation, 100 μL of neutralizing solution was added; each DNA extract was diluted at 1/40 and stored at +4° C. until use. SOD1^G93A gene was determined using genomic fragment with human SOD1 primers (5′-[…]-3′; 5′-[…]-3′). The SOD1 primers were diluted at 3 μM in sterile ultrapure water. Briefly, a mix for PCR was prepared with ultrapure water (4 μL per sample), primer at 3 μM (2 μL per sample) and Master Mix (10 μL per sample). In a PCR 96 wells plate, 16 μL of PCR mix was added in each well. 4 μL of each diluted DNA was added according to a plan deposit.
Rat spinal cord (SC) motor neurons were cultured as described by Martinou et al., Neuron. 1992, April; 8(4), 737-44 and Wang et al. Hum. Mol. Genet., 2013 Dec. 1; 22(23), 4706-19. Pregnant female rats of 14 days of gestation were killed by cervical dislocation. Fetuses were collected and immediately placed in ice-cold L15 Leibovitz medium with a 2% penicillin (10,000 U/mL) and streptomycin (10 mg/mL) solution (PS) and 1% bovine serum albumin (BSA). Each fetus was dispatched on numerating petri dish (35 mm of diameter). Tail of fetuses were cut, placed on 1.5 ml tube free DNAase; the DNA was extracted with the Extract-N-Amp Tissue Kit.
The genotyping of SOD tg fetuses was performed with the kit Fast SYBR Green Master Mix. This genotyping was made during the dissection of spinal cord, thus at the end of the dissection culture of SOD Tg spinal cord and WT spinal cord was done. Spinal cords were removed and placed in ice-cold medium of Leibovitz (L15). SC were treated for 20 min at 37° C. with a trypsin-EDTA solution at a final concentration of 0.05% trypsin and 0.02% EDTA. The dissociation was stopped by addition of Dulbecco's modified Eagle's medium (DMEM) with 4.5 g/liter of glucose, containing DNAse I grade II (final concentration 0.5 mg/mL) and 10% fetal calf serum (FCS). Cells were mechanically dissociated by three forced passages through the tip of a 10-ml pipette. Cells were then centrifuged at 180×g for 10 min at +4° C. on a layer of BSA (3.5%) in L15 medium. […] Viable cells were counted in a Neubauer cytometer, using the trypan blue exclusion test. […]

[7] = dose dependence, 5 μM glutamate 20 min, 48 h

Structure (SMILES): Nc1nc2ccc(OC(F)(F)F)cc2s1 [Riluzole]
- Effect on motor and respiratory functions (ALS [1]): no effect

Structure (SMILES): CC1=NN(c2ccccc2)C(=O)C1 [Edavarone]
- Decline of ALS Functional Rating Scale-Revised score compared with placebo (ALS [2]): significantly smaller decline

Structure (SMILES): CC(C)CN(CCCN1CCN(CCCNc2nc3ccccc3[nH]2)CC1)CC(C)C.O=S(=O)(O)O.O=S(=O)(O)O [N-(3-(4-(3-(diisobutylamino)propyl)piperazin-1-yl)propyl)-1H-benzo[d]imidazol-2-amine di-sulphate]
- Effect on motor neuron survival compared to the glutamate condition ([3]; 3 nM to 30 nM, 24 h pre-incubation + 24 h post-injury): positive and significant effect on survival
- Extranuclear TDP-43 (abnormal distribution) ([3]; 10 nM to 30 nM, glutamate alone eTDP-43 signal 128% of control): able to fully prevent the abnormal distribution of TDP-43
- Neurite network integrity (mean length, percentage of control) ([3]; 30 nM (maximal effect), 24 h pre-incubation + 24 h post-injury): 91%
- Motor neuron survival (mean survival, percentage of control) ([3]; 30 nM (maximal effect), 24 h pre-incubation + 24 h post-injury, glutamate alone 65%): 87%
- Effect on neurite network (protection from glutamate damage) ([3]; all investigated doses, 24 h pre-incubation + 24 h post-injury): able to protect the neurite network from glutamate damage
- Neuroprotective effect on neuromuscular junctions and neurite network against glutamatergic stress [4]: successfully protected the neuromuscular junctions and the neurite network
- Number of NMJs [4]: increased
- Total area of NMJs [4]: increased
- Total neurite network [4]: increased
- Effect on motor neuron survival compared to the glutamate condition ([5]; 10 nM to 30 nM, 5 μM glutamate 20 min): positive and significant effect on survival
- Neurite network integrity (mean length, percentage of control) ([5]; 30 nM (maximal effect), 5 μM glutamate 20 min): 80%
- Motor neuron survival (mean survival, percentage of control) ([5]; 30 nM (maximal effect), 5 μM glutamate 20 min, glutamate alone 55%): 82%
- Extranuclear TDP-43 (cytoplasmic accumulation) ([5]; 10 and 30 nM, 5 μM glutamate 20 min): able to prevent the accumulation of TDP-43 in the cytoplasm
- Effect on neurite network after glutamate injury ([5]; all investigated doses): able to improve the neurite network after glutamate injury
- Protective effects compared with Riluzole and Edaravone ([6]; 300 nM versus Riluzole 1 μM and Edaravone 5 μM): greater than those of Riluzole or Edaravone
- Neuroprotection (number of MNs, neurite network, TDP-43 distribution) ([6]; all investigated doses, 5 μM glutamate 20 min, 48 h): neuroprotective
- Protective effect on neuronal survival [6, 7]: dose-dependent
- Protective effect on the distribution of TDP-43 [6, 7]: dose-dependent
